These results are taken from US20110070215A1 (priority 2009, published 2011).

The experiment concerns DU-145 cells. It is filed as cell-based, human.

Consider `C=C1[C@@H](C)[C@H]2[C@H](Cc3ccccc3)NC(=O)[C@]23[C@H](OC(C)=O)/C=C/[C@@](C)(O)C(=O)[C@@H](C)C/C=C/[C@H]3[C@@H]1O` [Cytochalasin-D], for which the “Relative Wound Density at 24 Hours, Mean” value amounted to 3.3 ± 0.2; the “Relative Wound Density at 24 Hours, Percent Relative to Media” value worked out at 4%; the “effect on cell migration” value is “did not migrate”.
